In patent publication US20050004211A1, “Pharmaceutical compositions comprising aryl-substituted acyclic enediyne compounds” (KAOHSIUNG MEDICAL UNIVERSITY, priority 2003, published 2005):
Converted amounts (≈) assume the structure as drawn. Where two headings read alike, the source gives them in different places.

What was measured:
topoisomerase I = molecular target: T1, topoisomerase I (Homo sapiens, UniProt P11387); assay: Topoisomerase I course assay, cleavage of supercoiled pGEM9zf(−) DNA, gel electrophoresis; format: biochemical; settings: 87 μM compound
T1 sequence (P11387 1-765): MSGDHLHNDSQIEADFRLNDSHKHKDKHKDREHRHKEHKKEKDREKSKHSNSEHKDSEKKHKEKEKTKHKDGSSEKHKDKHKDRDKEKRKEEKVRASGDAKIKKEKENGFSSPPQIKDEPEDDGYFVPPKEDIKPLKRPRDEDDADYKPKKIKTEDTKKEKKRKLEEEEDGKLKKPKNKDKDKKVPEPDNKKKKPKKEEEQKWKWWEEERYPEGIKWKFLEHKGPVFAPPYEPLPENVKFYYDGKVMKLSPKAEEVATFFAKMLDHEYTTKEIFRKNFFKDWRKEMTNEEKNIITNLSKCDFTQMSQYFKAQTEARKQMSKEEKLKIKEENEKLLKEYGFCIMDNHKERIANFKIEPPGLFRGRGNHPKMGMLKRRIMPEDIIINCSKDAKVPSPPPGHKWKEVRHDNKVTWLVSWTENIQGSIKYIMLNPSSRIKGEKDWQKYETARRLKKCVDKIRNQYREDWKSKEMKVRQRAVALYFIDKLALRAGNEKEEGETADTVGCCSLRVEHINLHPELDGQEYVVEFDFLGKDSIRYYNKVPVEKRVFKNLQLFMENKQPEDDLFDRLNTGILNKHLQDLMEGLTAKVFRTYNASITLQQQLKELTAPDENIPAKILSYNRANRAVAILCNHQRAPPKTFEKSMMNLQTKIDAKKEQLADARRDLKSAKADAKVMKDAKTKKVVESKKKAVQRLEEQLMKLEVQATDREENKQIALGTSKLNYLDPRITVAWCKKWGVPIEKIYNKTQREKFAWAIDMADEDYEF

[1] = tested on: NCI (NCI-H661): human lung large cell carcinoma; assay: In vitro anticancer assay (cytotoxicity), human solid tumor cells; settings: for IC50 Values of Cytotoxicities, NCI: NCI (NCI-H661); for IC50: Homo sapiens, NCI-H661, read-out: IC50 Values of Cytotoxicities, NCI
Hepa: human hepatoma [2] = tested on: Hepa: human hepatoma
[3] = tested on: Hela: human cervix epitheloid carcinoma
[4] = tested on: DLD (DLD-1): human colon adenocarcinoma; assay: In vitro anticancer assay (cytotoxicity), human solid tumor cells; settings: for IC50: Homo sapiens, DLD-1, read-out: IC50 Values of Cytotoxicities, DLD
[5] = tested on: KB: human oral epidermoid carcinoma; assay: as above
Hepa: human hepatoma [6] = assay: as above; settings: for IC50: Homo sapiens, HepA, read-out: IC50 Values of Cytotoxicities, Hepa
KB = settings: read-out: Cytotoxicities (IC50), KB; KB cell; earlier research work; cited from earlier work
Hep2,2,15 = settings: read-out: Cytotoxicities (IC50), Hep2,2,15, earlier research work; cited from earlier work
[7] = tested on: Hela: human cervix epitheloid carcinoma; assay: In vitro anticancer assay (cytotoxicity), human solid tumor cells; settings: for IC50: Homo sapiens, HeLa, read-out: IC50 Values of Cytotoxicities, Hela
[8] = tested on: human hepatoma Hep G2 cells; assay: Cell cycle analysis by flow cytometry; format: cell-based; settings: 72 hrs
Description: Samples of 1×10^6 Hep G2 cells were plated on a 6 cm tissue culture dish, and the cells were allowed to recover 24 hrs before any treatment. Thereafter, DMSO or a test compound (1 μM, 10 μM or 50 μM) was added to the cells for 1 hr in complete medium at 37° C., washed twice with PBS, and incubated in fresh media for the incubation time. Cell were harvested with trypsin and washed twice with PBS. Samples were fixed in 70% ethanol and stored at 4° C. for at least 24 hrs and then washed once with Mcllvaine's buffer (0.2M Na2HPO4, 0.1M citric acid, pH=7.5) and once again with PBS. Samples were stained with PI (propidium iodide) staining solution (PBS containing 100 μg/ml, RNase A and 10 μg/ml PI [Sigma]), processed on a Coulter Elite flow cytometry, and the data analyzed with the Mutiplus AV program.
To obtain more information about the effect(s) of the acyclic enediynes according to this invention upon the growth of cells, human hepatoma Hep G2 cells or K-562 cells were used, and the growth characteristic of said cells were measured subsequent to the treatment with a test compound.
1 μM or 10 μM of compound 5 was added to the cells, and after exposure to the compounds for 72 hrs, attached cells were analyzed by flow cytometry. The majority (71.5%) of control cells exposed to DMSO were in the G0-G1 phase of cell cycle, and only a small amount of cells was detected in either the S phase (22.7%) or G2/M (5.8%) phase. Moreover, after a 72 hrs treatment with compound 5 (1 and 10 μM), cells progressed to the S phase and the majority of cell population was almost arrested at the S phase. Consistent with this cell cycle arrest, only 36.6% (1 μM) and 46.9% (10 μM) of the cells were found at the G0-G1 phase, 63.2% (1 μM) and 53.0% (10 μM) in S phase, and 0.2% (1 μM) and 0.1% (10 μM) in G2/M phase. However, the significant blockage of the Hep G2 cell cycle in S phase was observed and was induced by both concentrations (1 μM and 10 μM) of compound 5.

CCCCCCC#C/C=C\C#Cc1ccc(C(C)=O)cc1 [Compound 23, 4-(3-(Z)-Dodecen-1,5-diynyl)acetophenone]
inhibition of topo I (topoisomerase I): displayed inhibitory activities of topo I | IC50 Values of Cytotoxicities, NCI [1]: 13.13 µg/mL | IC50 Values of Cytotoxicities, Hepa (Hepa: human hepatoma [2]): — (key: “—” means IC50 >20 μg/ml) | IC50 Values of Cytotoxicities, Hela [3]: — (key: “—” means IC50 >20 μg/ml) | IC50 Values of Cytotoxicities, DLD [4]: — (“—” means IC50 >20 μg/ml)

CCCCC#C/C=C\C#Cc1ccc(Cl)cc1 [Compound 13]
IC50 Values of Cytotoxicities, NCI [1]: 8.00 µg/mL | IC50 Values of Cytotoxicities, Hepa (Hepa: human hepatoma [2]): — (key: “—” means IC50 >20 μg/ml) | IC50 Values of Cytotoxicities, Hela [3]: 9.83 µg/mL | IC50 Values of Cytotoxicities, KB [5]: — (“—” means IC50 >20 μg/ml)

CCCCCC#C/C=C\C#Cc1ccccc1C#N [Compound 4, 2-(3(Z)-Undecen-1,5-diynyl)benzonitrile]
IC50 [1]: > 20 µg/mL | IC50 (Hepa: human hepatoma [6]): 7.28 µg/mL (≈ 29.4 µM) | IC50 (KB): < 0.01 µM | IC50 (Hep2,2,15): > 10 µM | IC50 [7]: 6.38 µg/mL (≈ 25.8 µM) | IC50 [4]: > 20 µg/mL

N#Cc1ccccc1C#C/C=C\C#CCCCOC1CCCCO1 (stereo not shown) [Compound 2, 2-(9-(Tetrahydropyranyloxy)-3(Z)-nonen-1,5-diynyl)-benzonitrile]
IC50 Values of Cytotoxicities, NCI [1]: — (“—” means IC50 >20 μg/ml) | IC50 Values of Cytotoxicities, Hepa (Hepa: human hepatoma [6]): 14.66 µg/mL | IC50 (KB): < 0.01 µM | IC50 (Hep2,2,15): > 10 µM | IC50 Values of Cytotoxicities, Hela [7]: 10.62 µg/mL | IC50 Values of Cytotoxicities, DLD [4]: — (“—” means IC50 >20 μg/ml)

CCCCC#C/C=C\C#Cc1ccccc1C#N [Compound 3, 2-(3(Z)-Decen-1,5-diynyl)benzonitrile]
IC50 [1]: > 20 µg/mL | IC50 (Hepa: human hepatoma [6]): 12.5 µg/mL (≈ 53.5 µM) | IC50 (KB): < 0.01 µM | IC50 (Hep2,2,15): 17 µM | IC50 [7]: > 20 µg/mL | IC50 [4]: 5.03 µg/mL (≈ 21.6 µM)

N#Cc1ccccc1C#C/C=C\C#CCOC1CCCCO1 (stereo not shown) [Compound 1, 2-(7-(Tetrahydropyranyloxy)-3(Z)-hepten-1,5-diynyl)-benzonitrile]
IC50 Values of Cytotoxicities, NCI [1]: —* (“—” means IC50 >20 μg/ml) | IC50 Values of Cytotoxicities, Hepa (Hepa: human hepatoma [6]): 14.26 µg/mL | IC50 (KB): 0.1 µM | IC50 (Hep2,2,15): > 10 µM | IC50 Values of Cytotoxicities, Hela [7]: 9.97 µg/mL | IC50 Values of Cytotoxicities, DLD [4]: 8.61 µg/mL

N#Cc1ccccc1C#C/C=C\C#Cc1ccccc1 [Compound 5, 2-(6-phenyl-3(Z)-hexen-1,5-diynyl)benzonitrile]
cells at the G0-G1 phase ([8]; 1 μM): 36.6% | cells in G2/M phase ([8]; 1 μM): 0.2% | cells in S phase ([8]; 1 μM): 63.2% | cells at the G0-G1 phase ([8]; 10 μM): 46.9% | cells in G2/M phase ([8]; 10 μM): 0.1% | cells in S phase ([8]; 10 μM): 53.0% | IC50 [1]: 7.01 µg/mL (≈ 27.7 µM) | IC50 (Hepa: human hepatoma [6]): 1.09 µg/mL (≈ 4.3 µM) | IC50 [7]: > 20 µg/mL | IC50 [4]: > 20 µg/mL
